Assay [1] addresses soluble human BACE1 catalytic domain (Homo sapiens, UniProt P56817). As to the kind of experiment: BACE1 HTRF FRET Assay. The class given is biochemical. Particulars: Ki calculated from IC50 using the Cheng-Prusoff equation; QSY7-APPswe-Eu substrate 200 nM final, pH 5.0, 30° C. Here is the method:
A homogeneous time-resolved FRET assay can be used to determine IC50 values for inhibitors of the soluble human BACE1 catalytic domain. […] This substrate contains an N-terminal QSY7 moiety that serves as a quencher of the C-terminal Europium fluorophore (620nm Em). […] Inhibition of BACE1 cleavage of the QSY7-APP^swe-Eu substrate by inhibitors is manifested as a suppression of 620 nm fluorescence. […] The reactions are incubated at 30° C for 1.5 hours. The 620nm fluorescence is then read on a Rubystar HTRF plate reader (BMG Labtechnologies) using a 50 millisecond delay followed by a 400 millisecond acquisition time window. Inhibitor IC50 values are derived from non-linear regression analysis of concentration response curves.

Assay [2] deals with T1, purified human autoBACE-2 (Homo sapiens, UniProt Q9Y5Z0).
T1 sequence (Q9Y5Z0 63-473 limits assumed): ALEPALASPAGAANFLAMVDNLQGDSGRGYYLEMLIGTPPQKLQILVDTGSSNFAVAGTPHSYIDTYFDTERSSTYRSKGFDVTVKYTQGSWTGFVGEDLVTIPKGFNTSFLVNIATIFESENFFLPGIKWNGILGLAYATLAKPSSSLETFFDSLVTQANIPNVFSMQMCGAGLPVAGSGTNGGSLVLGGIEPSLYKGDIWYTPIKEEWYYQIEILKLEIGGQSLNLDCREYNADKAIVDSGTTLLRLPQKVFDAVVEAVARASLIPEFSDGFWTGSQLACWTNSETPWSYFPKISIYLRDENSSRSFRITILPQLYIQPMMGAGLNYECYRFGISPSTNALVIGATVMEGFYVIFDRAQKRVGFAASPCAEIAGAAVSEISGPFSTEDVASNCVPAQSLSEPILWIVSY
As to the kind of experiment: BACE-2 Assay (BACE-HTRF assay). Particulars: Ki calculated from IC50 using the Cheng-Prusoff equation; QSY7-EISEVNLDAEFC-Eu-amide substrate 200 nM final, pH 5.0, 30°C; read-out: BACE2 Ki. The class given is biochemical. Here is the method: Inhibitor IC50's at purified human autoBACE-2 are determined in a time-resolved endpoint proteolysis assay that measures hydrolysis of the QSY7-[…]-Eu-amide FRET peptide substrate (BACE-HTRF assay). […] Inhibitor compounds, prepared at 3x the desired final concentration in 1x BACE assay buffer (20 mM sodium acetate pH 5.0,10% glycerol, 0.1% Brij-35) supplemented with 7.5% DMSO are pre-incubated with an equal volume of autoBACE-2 enzyme diluted in 1x BACE assay buffer (final enzyme concentration 1 nM) in black 384-well NUNC plates for 30 minutes at 30°C. […] DMSO is present at 5% final concentration in the assay. Following laser excitation of sample wells at 320 nm, the fluorescence signal at 620 nm is collected for 400 ms following a 50 µs delay on a RUBYstar HTRF plate reader (BMG Labtechnologies). Raw RFU data is normalized to maximum (1.0 nM BACE/DMSO) and minimum (no enzyme/DMSO) RFU values. […] The Ki values are calculated from the IC50 using the Cheng-Prusoff equation.

Sequence of soluble human BACE1 catalytic domain (P56817 75-416 limits assumed): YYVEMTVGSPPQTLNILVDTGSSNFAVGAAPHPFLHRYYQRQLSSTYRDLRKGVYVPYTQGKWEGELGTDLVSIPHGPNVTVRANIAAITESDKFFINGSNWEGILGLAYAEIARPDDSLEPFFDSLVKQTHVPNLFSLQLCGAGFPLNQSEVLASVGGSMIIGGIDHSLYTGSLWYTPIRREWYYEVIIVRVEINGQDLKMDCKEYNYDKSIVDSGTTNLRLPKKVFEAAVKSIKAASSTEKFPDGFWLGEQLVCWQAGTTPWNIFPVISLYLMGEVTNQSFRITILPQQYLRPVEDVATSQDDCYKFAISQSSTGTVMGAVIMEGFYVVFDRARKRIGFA

In the case of `CN1C(=N)N[C@](C)(c2cc(NC(=O)c3ccc(F)cn3)ccc2F)C2(CCN(Cc3ccccc3)C2)S1(=O)=O` (some centres unmarked) [Example 1], the Ki in assay [1] was 3.4 nM; in assay [2], 4.5 nM.
Regarding `CN1C(=N)N[C@](C)(c2cc(NC(=O)c3ccc(F)cn3)ccc2F)C2(CCNC2)S1(=O)=O` (some centres unmarked) [Example 2], the Ki is 19.5 nM in assay [1] and 30 nM in assay [2].
On the same counts, the results for `CN1C(=N)N[C@](C)(c2cc(NC(=O)c3ccc(F)cn3)ccc2F)C2(CCN(S(C)(=O)=O)C2)S1(=O)=O` (some centres unmarked) [Example 3] are 5 nM and 9 nM.
Taken in the same sequence, the figures for `CC(=O)N1CCC2(C1)[C@@](C)(c1cc(NC(=O)c3ccc(F)cn3)ccc1F)NC(=N)N(C)S2(=O)=O` (some centres unmarked) [Example 4] were 3.7 nM and 9 nM.
For `CN1C(=N)N[C@](C)(c2cc(NC(=O)c3ccc(F)cn3)ccc2F)C2(CCN(C(=O)C3CC3)C2)S1(=O)=O` (some centres unmarked) [Example 5], the values for the Ki in assay [1] and in assay [2] were 2 nM and 3.1 nM, respectively.
As for `CN1C(=N)N[C@](C)(c2cc(NC(=O)c3ccc(F)cn3)ccc2F)C2(CCN(C(=O)CC3CC3)C2)S1(=O)=O` (some centres unmarked) [Example 6], the Ki in assay [1] was 2.7 nM; in assay [2], 5.2 nM.
For the compound `CC(C)CC(=O)N1CCC2(C1)[C@@](C)(c1cc(NC(=O)c3ccc(F)cn3)ccc1F)NC(=N)N(C)S2(=O)=O` (some centres unmarked) [Example 7], the Ki was 2.8 nM in assay [1] and 5.7 nM in assay [2].
For the compound `COc1ccc(C(=O)Nc2ccc(F)c([C@@]3(C)NC(=N)N(C)S(=O)(=O)[C@]34CCN(Cc3cocn3)C4)c2)nc1` [Example 18], the Ki was 47 nM in assay [1] and 158 nM in assay [2].
In the case of `COc1ccc(C(=O)Nc2ccc(F)c([C@@]3(C)NC(=N)N(C)S(=O)(=O)[C@]34CCN(Cc3cscn3)C4)c2)nc1` [Example 19], the inhibition constant (Ki) in assay [1] is 20 nM; in assay [2], 70 nM.
For the compound `COc1ccc(C(=O)Nc2ccc(F)c([C@@]3(C)NC(=N)N(C)S(=O)(=O)[C@]34CCN(CC3CCOC3)C4)c2)nc1` (some centres unmarked) [Example 20], the Ki in assay [1] was 51 nM; in assay [2], 188 nM.
As for `COc1ccc(C(=O)Nc2ccc(F)c([C@@]3(C)NC(=N)N(C)S(=O)(=O)[C@]34CCN(CC3CC(OC)C3)C4)c2)nc1` (some centres unmarked) [Example 21], the Ki is 91 nM in assay [1] and 201 nM in assay [2].
For the compound `COc1ccc(C(=O)Nc2ccc(F)c([C@@]3(C)NC(=N)N(C)S(=O)(=O)[C@]34CCN(Cc3ccccn3)C4)c2)nc1` [Example 22], the figures for the inhibition constant Ki in assay [1] and in assay [2] were 26 nM and 79 nM, respectively.
Consider `COc1ccc(C(=O)Nc2ccc(F)c([C@@]3(C)NC(=N)N(C)S(=O)(=O)[C@]34CCN(Cc3cccnc3)C4)c2)nc1` [Example 23], for which the Ki in assay [1] is 30 nM; in assay [2], 142 nM.
For the compound `COc1ccc(C(=O)Nc2ccc(F)c([C@@]3(C)NC(=N)N(C)S(=O)(=O)[C@]34CCN(CC3CC3)C4)c2)nc1` [Example 24], the Ki in assay [1] is 34 nM; in assay [2] it was 128 nM.
`COc1ccc(C(=O)Nc2ccc(F)c([C@@]3(C)NC(=N)N(C)S(=O)(=O)[C@]34CCN(Cc3cncnc3)C4)c2)nc1` [Example 26]: the results for the inhibition constant (Ki) in assay [1] and in assay [2] were 51 nM and 329 nM, respectively.
For the compound `COc1ccc(C(=O)Nc2ccc(F)c([C@@]3(C)NC(=N)N(C)S(=O)(=O)[C@]34CCN(Cc3cnn(C)c3)C4)c2)nc1` [Example 27], the figures for the inhibitory constant (Ki) in assay [1] and in assay [2] were 54 nM and 388 nM, respectively.
Taken in the same sequence, the figures for `COc1ccc(C(=O)Nc2ccc(F)c([C@@]3(C)NC(=N)N(C)S(=O)(=O)[C@]34CCN(Cc3cnco3)C4)c2)nc1` [Example 28] were 28 nM and 237 nM.
Regarding `CN1C(=N)N[C@](C)(c2cc(NC(=O)c3ccc(F)cn3)ccc2F)[C@]2(CCN(Cc3ccccn3)C2)S1(=O)=O` [Example 41], the Ki in assay [1] is 3 nM; in assay [2], 6 nM.
For `CN1C(=N)N[C@](C)(c2cc(NC(=O)c3ccc(F)cn3)ccc2F)[C@@]2(CCN(Cc3cscn3)C2)S1(=O)=O` [Example 42], the results for the inhibitory constant (Ki) in assay [1] and in assay [2] were 32 nM and 25 nM, respectively.
As to `COC1CC(CN2CC[C@]3(C2)[C@@](C)(c2cc(NC(=O)c4ccc(F)cn4)ccc2F)NC(=N)N(C)S3(=O)=O)C1` (some centres unmarked) [Example 44], the results for the Ki in assay [1] and in assay [2] were 120 nM and 52 nM, respectively.
Consider `CN1C(=N)N[C@](C)(c2cc(NC(=O)c3ccc(F)cn3)ccc2F)[C@@]2(CCN(Cc3ccccn3)C2)S1(=O)=O` [Example 45], for which the Ki was 33 nM in assay [1] and 23 nM in assay [2].
`CN1C(=N)N[C@](C)(c2cc(NC(=O)c3ccc(F)cn3)ccc2F)[C@@]2(CCN(Cc3cccnc3)C2)S1(=O)=O` [Example 46]: the Ki is 54 nM in assay [1] and 40 nM in assay [2].
On to `CN1C(=N)N[C@](C)(c2cc(NC(=O)c3ccc(F)cn3)ccc2F)[C@@]2(CCN(CC3CC3)C2)S1(=O)=O` [Example 47], for which the Ki in assay [1] was 58 nM; in assay [2], 51 nM.
Taken in the same sequence, the figures for `CN1C(=N)N[C@](C)(c2cc(NC(=O)c3ccc(F)cn3)ccc2F)[C@@]2(CCN(Cc3cocn3)C2)S1(=O)=O` [Example 49] were 33 nM and 21 nM.
As to `CN1C(=N)N[C@](C)(c2cc(NC(=O)c3ccc(F)cn3)ccc2F)[C@@]2(CCN(Cc3cncnc3)C2)S1(=O)=O` [Example 50], the Ki in assay [1] was 70 nM; in assay [2] it was 77 nM.
Regarding `CN1C(=N)N[C@](C)(c2cc(NC(=O)c3ccc(F)cn3)ccc2F)[C@@]2(CCN(Cc3cnn(C)c3)C2)S1(=O)=O` [Example 51], the values for the Ki in assay [1] and in assay [2] were 151 nM and 184 nM, respectively.
Consider `CCCCN1CC[C@]2(C1)[C@@](C)(c1cc(NC(=O)c3ccc(F)cn3)ccc1F)NC(=N)N(C)S2(=O)=O` [Example 52], for which the Ki in assay [1] was 73 nM; in assay [2], 61 nM.
In the case of `CN1C(=N)N[C@](C)(c2cc(NC(=O)c3ccc(F)cn3)ccc2F)[C@@]2(CCN(Cc3ccncc3)C2)S1(=O)=O` [Example 53], the Ki in assay [1] is 84 nM; in assay [2], 61 nM.
On the same counts, the results for `CN1C(=N)N[C@](C)(c2cc(NC(=O)c3ccc(F)cn3)ccc2F)[C@@]2(CCN(Cc3cnco3)C2)S1(=O)=O` [Example 54] are 54 nM and 74 nM.
Taken in the same sequence, the figures for `COc1ccc(C(=O)Nc2ccc(F)c([C@@]3(C)NC(=N)N(C)S(=O)(=O)[C@@]34CCN(S(C)(=O)=O)C4)c2)nc1` [Example 55] were 3 nM and 10 nM.
Take `CCS(=O)(=O)N1CC[C@@]2(C1)[C@@](C)(c1cc(NC(=O)c3ccc(OC)cn3)ccc1F)NC(=N)N(C)S2(=O)=O` [Example 56]: the Ki in assay [1] is 1 nM; in assay [2] it was 6 nM.
`COc1ccc(C(=O)Nc2ccc(F)c([C@@]3(C)NC(=N)N(C)S(=O)(=O)[C@@]34CCN(S(=O)(=O)CC(C)C)C4)c2)nc1` [Example 57]: the Ki in assay [1] is 1 nM; in assay [2], 5 nM.
For `COc1ccc(C(=O)Nc2ccc(F)c([C@@]3(C)NC(=N)N(C)S(=O)(=O)[C@@]34CCN(S(=O)(=O)c3ccc(F)cc3)C4)c2)nc1` [Example 58], the Ki in assay [1] was 3 nM; in assay [2], 20 nM.
`COc1ccc(C(=O)Nc2ccc(F)c([C@@]3(C)NC(=N)N(C)S(=O)(=O)[C@@]34CCN(S(=O)(=O)c3ccccc3)C4)c2)nc1` [Example 59]: the figures for the Ki in assay [1] and in assay [2] were 3 nM and 16 nM, respectively.

A word on the Ki: it is a measure of affinity in units of concentration, obtained from inhibition or displacement.

Source of the values: patent publication EP2934149B1, “C6-AZASPIRO IMINOTHIADIAZINE DIOXIDES AS BACE INHIBITORS” (Merck Sharp & Dohme Corp., priority 2012, dated 2014).
